Measured values taken from patent US5130414A, “Isolation and structural elucidation of the cyclic peptide hymenistatin 1” (Arizona Board of Regents, a body corporate of Arizona State …, priority 1989, dated 1992).

System: murine P388 lymphocytic leukemia (PS system)
Assay: PS system cell growth inhibition (P388 murine leukemia cell line, N.C.I. Protocol)
Format: cell-based

cyclo [Hymenistatin 1, cyclo [Pro^a -Pro^b -Tyr-Val-Pro^c -Leu-Ili-Ile]]
PS ED50: 3.5 µg/mL
